We go through 6 compounds from ChEMBL document CHEMBL1134149, “Discovery, total synthesis, HRV 3C-protease inhibitory activity, and structure-activity relationships of 2-methoxystypandrone and its analogues” (Bioorg Med Chem Lett, 2001).

For one assay, the target named is T1, Papain (Carica papaya, UniProt P00784).
T1 sequence (P00784 whole entry): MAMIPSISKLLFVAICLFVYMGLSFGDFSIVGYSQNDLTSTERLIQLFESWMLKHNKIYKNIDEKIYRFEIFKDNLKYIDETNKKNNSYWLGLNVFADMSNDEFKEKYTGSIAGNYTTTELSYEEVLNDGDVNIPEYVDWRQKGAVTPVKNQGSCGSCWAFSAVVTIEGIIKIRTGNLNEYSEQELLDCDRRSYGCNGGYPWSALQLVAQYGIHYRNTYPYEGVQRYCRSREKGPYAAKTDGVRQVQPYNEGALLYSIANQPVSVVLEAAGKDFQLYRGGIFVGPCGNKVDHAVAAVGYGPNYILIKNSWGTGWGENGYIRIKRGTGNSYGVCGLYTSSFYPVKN
Description: Inhibitory activity against papain using HPLC assay.

A further assay has as its target T2, Papain (Carica papaya) (UniProt P00784).
T2 sequence (whole entry): T1 sequence (P00784 whole entry)
The assay is described as follows: Percent inhibition against papain. Conditions: concentration not given here.

Usually IC50 stands for the concentration that inhibits the measured activity by half. The low end stands for greater potency, the high end for weaker potency. What is called inhibition is the drop in the measured response relative to a control, in per cent. High values mean a response far below the control, low ones a response near the control.

Regarding `COC1=CC(=O)c2c(cc(C)c(C(C)=O)c2OC(C)=O)C1=O`, inhibition against Papain was half-maximal at 33 µM (IC50).

In turn, `COC1=CC(=O)c2c(cc(C)c(C(C)=O)c2O)C1=O` yielded an IC50 on Papain of 23 µM.

With `O=C1C=CC(=O)c2c1ccc1c2ccc2ccccc21`, the inhibition at Papain (Carica papaya) was determined as 45%. On Papain, this compound registered an IC50 of 18 µM.

Compound `O=C1C=Cc2ccccc2C1=O` [1,2-NAPHTHOQUINONE] yielded an inhibition against Papain (Carica papaya) of 67%. The IC50 against Papain was determined as 120 µM.

In turn, `O=C1C(=O)c2ccccc2-c2ccccc21` [9,10-PHENANTHRENEQUINONE] had an inhibition on Papain (Carica papaya) of 24%. On Papain, this compound showed a half-inhibitory concentration (IC50) of 91 µM.

Consider `O=C1C=CC(=O)c2ccccc21` [NAPHTHOQUINONE], for which the IC50 at Papain was found to be 29 µM. That is a double-digit micromolar value.
